{
  "source": "paper PMC3880807",
  "about": "(ACS chemical biology, 2013)",
  "target": "Src (Gallus gallus, UniProt P00523, Y527F)",
  "assay": "In vitro activity assay with Src phospho-isoforms",
  "assay_type": "biochemical",
  "settings": "npY416-Src vs pY416-Src",
  "data": [
    {"compound": "CNC(=O)c1cc(Oc2ccc(NC(=O)Nc3cc(C(C)(C)C)nn3-c3ccc4ncccc4c3)c(F)c2)ccn1", "note": "[compound 1, Rebastinib]", "values": [
      {"measurement": "Fold-difference in Ki, preference for npY416-Src over pY416-Src", "value": "~ 11 fold"}
    ]}
  ]
}
